According to article doi:10.1101/2021.09.30.462449v1 (biorxiv, 2021):

Columns and labels:
Assay in all cases: biochemical
Details in all cases: read-out: % inhibition mean (Z'Lyte)
[1] = molecular target: ABL1 (Homo sapiens, UniProt P00519)
[2] = molecular target: DCAMKL2 (DCK2) (Homo sapiens, UniProt Q8N568)
[3] = molecular target: SRC N1 (Homo sapiens, UniProt P12931)
[4] = molecular target: AURKA (Aurora A) (Homo sapiens, UniProt O14965)
[5] = molecular target: BTK (Homo sapiens, UniProt Q06187)
[6] = molecular target: RPS6KA6 (RSK4) (Homo sapiens, UniProt Q9UK32)
[7] = molecular target: BRAF (Homo sapiens, UniProt P15056)
[8] = molecular target: ADRBK2 (GRK3) (Homo sapiens, UniProt P35626)
[9] = molecular target: AURKC (Aurora C) (Homo sapiens, UniProt Q9UQB9)
[10] = molecular target: AMPK (A1/B2/G2) (Homo sapiens, UniProt Q13131)
[11] = molecular target: CDC42 BPG (MRCKG) (Homo sapiens, UniProt Q6DT37)
[12] = molecular target: PAK1 (Homo sapiens, UniProt Q13153)
[13] = molecular target: ABL1 F317L (Homo sapiens, UniProt P00519, F317L)
[14] = molecular target: FYN (Homo sapiens, UniProt P06241)
[15] = molecular target: SGK2 (Homo sapiens, UniProt Q9HBY8)
[16] = molecular target: CLK2 (Homo sapiens, UniProt P49760)
[17] = molecular target: BRSK1 (SAD1) (Homo sapiens, UniProt Q8TDC3)
[18] = molecular target: MET (cMet) (Homo sapiens, UniProt P08581)
[19] = molecular target: CHEK2 (CHK2) (Homo sapiens, UniProt O96017)
[20] = molecular target: MAP4K4 (HGK) (Homo sapiens, UniProt O95819)
[21] = molecular target: BMX (Homo sapiens, UniProt P51813)
[22] = molecular target: DYRK3 (Homo sapiens, UniProt O43781)
[23] = molecular target: ABL1 T315I (Homo sapiens, UniProt P00519, T315I)
[24] = molecular target: PIM2 (Homo sapiens, UniProt Q9P1W9)
[25] = molecular target: JAK1 (Homo sapiens, UniProt P23458)
[26] = molecular target: AMPK (A2/B1/G3) (Homo sapiens, UniProt P54646)
[27] = molecular target: AXL (Homo sapiens, UniProt P30530)
[28] = molecular target: MAPK14 (p38 alpha) Direct (Homo sapiens, UniProt Q16539)
[29] = molecular target: RPS6KB1 (p70S6K) (Homo sapiens, UniProt P23443)

JAK1, sequence (P23458 whole entry): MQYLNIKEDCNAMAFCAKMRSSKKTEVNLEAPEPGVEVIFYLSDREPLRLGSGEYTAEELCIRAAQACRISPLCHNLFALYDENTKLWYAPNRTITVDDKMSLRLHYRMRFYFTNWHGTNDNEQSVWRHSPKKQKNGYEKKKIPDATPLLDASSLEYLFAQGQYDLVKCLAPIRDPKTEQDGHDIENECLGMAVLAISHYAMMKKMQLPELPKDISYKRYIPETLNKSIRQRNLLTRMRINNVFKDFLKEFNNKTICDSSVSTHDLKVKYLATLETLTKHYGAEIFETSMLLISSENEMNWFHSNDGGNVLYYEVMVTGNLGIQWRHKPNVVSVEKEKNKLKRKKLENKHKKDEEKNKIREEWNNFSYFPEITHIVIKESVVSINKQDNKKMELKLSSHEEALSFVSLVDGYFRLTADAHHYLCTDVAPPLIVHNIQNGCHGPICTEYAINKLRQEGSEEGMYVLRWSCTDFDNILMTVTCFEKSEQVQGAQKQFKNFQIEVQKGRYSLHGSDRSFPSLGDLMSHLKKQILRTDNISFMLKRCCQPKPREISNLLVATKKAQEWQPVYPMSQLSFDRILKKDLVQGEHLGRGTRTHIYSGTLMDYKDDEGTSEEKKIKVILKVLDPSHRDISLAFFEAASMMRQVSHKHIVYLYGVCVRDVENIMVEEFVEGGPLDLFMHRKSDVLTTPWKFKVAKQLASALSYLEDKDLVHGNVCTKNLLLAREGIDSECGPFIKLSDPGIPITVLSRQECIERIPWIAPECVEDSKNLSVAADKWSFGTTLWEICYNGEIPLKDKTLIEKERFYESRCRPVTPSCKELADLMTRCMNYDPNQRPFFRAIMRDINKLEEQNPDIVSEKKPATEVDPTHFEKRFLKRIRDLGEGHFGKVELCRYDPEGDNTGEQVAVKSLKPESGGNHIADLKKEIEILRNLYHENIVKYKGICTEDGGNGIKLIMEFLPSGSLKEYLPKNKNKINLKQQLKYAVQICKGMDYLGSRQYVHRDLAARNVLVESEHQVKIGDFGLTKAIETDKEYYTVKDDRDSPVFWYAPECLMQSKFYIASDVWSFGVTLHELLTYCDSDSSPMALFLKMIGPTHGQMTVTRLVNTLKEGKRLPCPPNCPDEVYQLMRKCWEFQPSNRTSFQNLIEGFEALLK
PAK1, sequence (Q13153 whole entry): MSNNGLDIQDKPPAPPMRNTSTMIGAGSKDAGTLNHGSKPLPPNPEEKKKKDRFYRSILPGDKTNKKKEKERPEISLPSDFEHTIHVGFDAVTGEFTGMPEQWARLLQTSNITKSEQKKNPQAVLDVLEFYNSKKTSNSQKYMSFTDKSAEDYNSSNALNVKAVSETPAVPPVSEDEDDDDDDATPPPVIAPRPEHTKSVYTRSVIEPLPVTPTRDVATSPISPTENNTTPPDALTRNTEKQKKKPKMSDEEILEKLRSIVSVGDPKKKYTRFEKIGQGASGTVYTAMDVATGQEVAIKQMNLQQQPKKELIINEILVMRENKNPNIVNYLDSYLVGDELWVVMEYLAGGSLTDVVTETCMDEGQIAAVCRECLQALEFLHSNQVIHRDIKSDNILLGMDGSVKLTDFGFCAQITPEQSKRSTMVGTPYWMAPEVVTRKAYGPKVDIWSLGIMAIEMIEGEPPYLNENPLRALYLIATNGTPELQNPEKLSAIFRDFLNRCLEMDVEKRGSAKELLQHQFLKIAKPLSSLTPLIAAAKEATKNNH
AURKA (Aurora A), sequence (O14965 whole entry): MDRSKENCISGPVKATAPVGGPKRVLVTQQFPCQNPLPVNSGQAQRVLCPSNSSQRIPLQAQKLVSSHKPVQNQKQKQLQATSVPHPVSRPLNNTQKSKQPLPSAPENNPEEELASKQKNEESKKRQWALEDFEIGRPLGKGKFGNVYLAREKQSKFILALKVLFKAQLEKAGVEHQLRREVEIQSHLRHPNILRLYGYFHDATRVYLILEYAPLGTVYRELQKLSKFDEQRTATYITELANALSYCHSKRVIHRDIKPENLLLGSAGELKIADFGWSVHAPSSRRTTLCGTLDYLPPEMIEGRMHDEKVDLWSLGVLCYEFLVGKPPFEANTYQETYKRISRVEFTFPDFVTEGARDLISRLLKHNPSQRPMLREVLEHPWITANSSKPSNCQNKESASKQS
ADRBK2 (GRK3), sequence (P35626 whole entry): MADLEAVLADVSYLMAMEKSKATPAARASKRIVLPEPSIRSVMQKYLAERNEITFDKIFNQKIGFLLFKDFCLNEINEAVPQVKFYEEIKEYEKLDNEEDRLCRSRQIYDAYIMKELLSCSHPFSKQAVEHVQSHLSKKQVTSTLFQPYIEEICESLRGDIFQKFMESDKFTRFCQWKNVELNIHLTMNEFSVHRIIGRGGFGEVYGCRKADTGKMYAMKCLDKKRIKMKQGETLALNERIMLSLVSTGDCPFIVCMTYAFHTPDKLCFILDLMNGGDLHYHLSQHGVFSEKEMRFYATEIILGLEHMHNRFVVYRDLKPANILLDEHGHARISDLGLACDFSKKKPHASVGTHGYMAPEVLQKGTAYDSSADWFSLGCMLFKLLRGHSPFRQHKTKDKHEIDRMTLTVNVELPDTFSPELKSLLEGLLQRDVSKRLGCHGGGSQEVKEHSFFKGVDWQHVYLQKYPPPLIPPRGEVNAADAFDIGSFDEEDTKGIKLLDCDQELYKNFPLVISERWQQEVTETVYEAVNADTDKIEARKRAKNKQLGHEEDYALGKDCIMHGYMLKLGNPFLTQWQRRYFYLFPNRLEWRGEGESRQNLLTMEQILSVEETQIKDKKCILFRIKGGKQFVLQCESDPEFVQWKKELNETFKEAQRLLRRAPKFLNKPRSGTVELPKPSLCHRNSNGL
AMPK (A1/B2/G2), sequence (Q13131 whole entry): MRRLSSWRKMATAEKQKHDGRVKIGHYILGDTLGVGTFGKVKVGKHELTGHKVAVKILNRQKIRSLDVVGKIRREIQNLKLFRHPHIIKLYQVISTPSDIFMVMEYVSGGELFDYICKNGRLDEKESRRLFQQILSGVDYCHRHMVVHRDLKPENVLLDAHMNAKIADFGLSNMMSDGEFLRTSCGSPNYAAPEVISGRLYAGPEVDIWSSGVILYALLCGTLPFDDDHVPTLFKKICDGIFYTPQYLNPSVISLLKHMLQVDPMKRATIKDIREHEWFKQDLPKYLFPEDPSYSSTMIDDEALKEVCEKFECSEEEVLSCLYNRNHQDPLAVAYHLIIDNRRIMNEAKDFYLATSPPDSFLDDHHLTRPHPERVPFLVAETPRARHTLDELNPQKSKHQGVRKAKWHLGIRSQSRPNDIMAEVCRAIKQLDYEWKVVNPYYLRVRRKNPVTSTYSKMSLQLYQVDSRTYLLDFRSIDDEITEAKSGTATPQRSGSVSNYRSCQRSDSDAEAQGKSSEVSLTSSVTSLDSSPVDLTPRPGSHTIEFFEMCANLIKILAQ
AMPK (A1/B2/G2), sequence (O43741 whole entry partner): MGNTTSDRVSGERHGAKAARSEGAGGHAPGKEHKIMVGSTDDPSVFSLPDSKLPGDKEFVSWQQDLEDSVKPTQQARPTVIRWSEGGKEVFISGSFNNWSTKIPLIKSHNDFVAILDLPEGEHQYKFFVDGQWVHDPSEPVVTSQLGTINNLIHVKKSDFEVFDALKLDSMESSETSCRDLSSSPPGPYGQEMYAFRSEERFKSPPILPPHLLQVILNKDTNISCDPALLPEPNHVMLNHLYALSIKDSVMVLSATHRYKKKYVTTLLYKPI
AMPK (A1/B2/G2), sequence (Q9UGJ0 whole entry partner): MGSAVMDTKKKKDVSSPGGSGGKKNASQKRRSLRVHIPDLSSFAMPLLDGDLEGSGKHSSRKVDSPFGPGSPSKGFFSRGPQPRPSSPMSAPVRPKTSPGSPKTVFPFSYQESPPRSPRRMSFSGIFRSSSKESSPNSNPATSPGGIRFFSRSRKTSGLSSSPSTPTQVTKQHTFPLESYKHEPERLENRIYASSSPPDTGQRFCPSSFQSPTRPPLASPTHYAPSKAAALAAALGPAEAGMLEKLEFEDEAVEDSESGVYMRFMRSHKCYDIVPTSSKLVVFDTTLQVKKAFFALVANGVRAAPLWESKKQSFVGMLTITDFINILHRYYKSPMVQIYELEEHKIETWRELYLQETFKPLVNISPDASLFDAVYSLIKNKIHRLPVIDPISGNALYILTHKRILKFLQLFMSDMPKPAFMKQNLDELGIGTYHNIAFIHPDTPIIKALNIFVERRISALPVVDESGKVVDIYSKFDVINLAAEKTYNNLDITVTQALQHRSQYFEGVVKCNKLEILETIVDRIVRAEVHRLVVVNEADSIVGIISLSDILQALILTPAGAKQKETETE
AURKC (Aurora C), sequence (Q9UQB9 whole entry): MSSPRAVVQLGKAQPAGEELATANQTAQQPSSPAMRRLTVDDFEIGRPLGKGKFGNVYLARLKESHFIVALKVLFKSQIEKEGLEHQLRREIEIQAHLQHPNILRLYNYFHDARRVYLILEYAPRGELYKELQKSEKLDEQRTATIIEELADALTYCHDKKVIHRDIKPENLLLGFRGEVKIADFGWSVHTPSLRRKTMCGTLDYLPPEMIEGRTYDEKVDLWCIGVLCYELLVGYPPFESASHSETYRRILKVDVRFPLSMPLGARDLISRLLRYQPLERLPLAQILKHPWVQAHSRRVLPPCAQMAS
MAPK14 (p38 alpha) Direct, sequence (Q16539 whole entry): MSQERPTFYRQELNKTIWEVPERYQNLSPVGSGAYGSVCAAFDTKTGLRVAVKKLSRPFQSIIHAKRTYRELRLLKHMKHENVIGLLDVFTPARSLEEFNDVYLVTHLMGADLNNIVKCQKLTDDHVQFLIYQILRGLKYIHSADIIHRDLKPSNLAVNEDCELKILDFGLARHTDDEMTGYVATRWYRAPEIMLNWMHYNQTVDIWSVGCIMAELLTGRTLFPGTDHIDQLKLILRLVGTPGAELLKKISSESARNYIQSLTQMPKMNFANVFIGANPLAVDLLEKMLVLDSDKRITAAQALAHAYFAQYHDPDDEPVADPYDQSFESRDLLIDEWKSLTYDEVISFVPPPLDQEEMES

COc1ccc2nc3cc(Cl)ccc3c(Nc3cc(CN4CCCC4)c(O)c(CN4CCCC4)c3)c2n1 [Pyronaridine, 4-[(7-Chloro-2-methoxybenzo[b][1,5]naphthyridin-10-yl)amino]-2,6-bis(1-pyrrolidinylmethyl)phenol phosphate (1:4)]
inhibition at 1 µM [1]: 2%
inhibition at 1 µM [2]: -1%
inhibition at 1 µM [3]: 5%
inhibition at 1 µM [4]: 9%
inhibition at 1 µM [5]: 9%
inhibition at 1 µM [6]: 4%
inhibition at 1 µM [7]: 4%
inhibition at 1 µM [8]: -5%
inhibition at 1 µM [9]: -11%
inhibition at 1 µM [10]: -2%
inhibition at 1 µM [11]: 1%
inhibition at 1 µM [12]: 6%
inhibition at 1 µM [13]: -1%
inhibition at 1 µM [14]: 2%
inhibition at 1 µM [15]: 3%
inhibition at 1 µM [16]: 3%
inhibition at 1 µM [17]: 2%
inhibition at 1 µM [18]: -1%
inhibition at 1 µM [19]: 0%
inhibition at 1 µM [20]: 1%
inhibition at 1 µM [21]: 11%
inhibition at 1 µM [22]: 1%
inhibition at 1 µM [23]: 11%
inhibition at 1 µM [24]: -4%
inhibition at 1 µM [25]: 0%
inhibition at 1 µM [26]: 2%
inhibition at 1 µM [27]: 1%
inhibition at 1 µM [28]: 3%
inhibition at 1 µM [29]: 3%
